Entries after “also recorded” stand apart in the source; their conditions may differ. In the oligonucleotide strings, read from the 5' end, every base follows the letter of its sugar. An asterisk marks phosphorothioate; unmarked linkages are phosphodiester. Other units and linkages are bracketed, terminal groups are in braces. A string of capitals states the bases alone. d = 2'-deoxy (DNA)
Legend:
[1] = test system: RAW264.7 cells; assay: Nitric oxide (NO) production, Griess reaction; type: cell-based, mouse; conditions: added with 10 μM mEN101
Method: (§1) The mouse macrophage cell line RAW 264.7 (ATCC, Bethesda, Md.) was cultured in Dulbecco's modified Eagle's medium (DMEM) (Biological Industries) supplemented with 10% heat-inactivated fetal bovine serum (Biological Industries, Israel), 100 μg/ml streptomycin, 100 U/ml penicillin (Sigma) and 2 mM 1-glutamine (Biological Industries) at 37° C. in a humidified atmosphere with 5% CO2.
Determination of nitric oxide (NO) production: Nitrite concentration in the medium of cultured cells was measured as an indicator of NO production according to the Griess reaction. 1×10^5 mouse RAW264.7 cells were grown in 0.5 ml medium in 48-wells plate until 80% confluence was obtained. […] (1% sulfanilamide, 0.1% naphthylethylenediamine dihydrochloride, 5% H3PO4). Absorbance was read at 540 nm after 10 min using SPECTRAFluor Plus spectrophotometer (TECAN, UK).
To further characterize the TLR9 activating features of mEN101, mEN101 was applied to RAW264.7 cells (n=4 repeats) for 24 hours and the subsequent production of inflammatory markers was quantified. […] Addition of chloroquine (CQ), a weak base that perturbs endosomal pH and thus disturbs endosomal maturation, as well as the specific TLR9 inhibiting oligonucleotides ODN2088 and ODN TTAGGG (17), all blocked the 10 μM mEN101-driven increases in NO (p<0.015) (FIG. 2A). Thus, both gain and loss of function tests validated the nature of mEN101 as an endosomally active TLR9 activator, albeit a weak one.

[2] = test system: RAW264.7 cells; assay: HSP90β mRNA RT-PCR in RAW264.7 cells; type: cell-based, mouse; conditions: with mEN101, 24 hours
Method: as §1, with “Cell cultures: The” for “The”, “MD)” for “Bethesda, Md.)”, “Industries, Israel)” for “Industries)”, “streptomycin (Sigma),” for “streptomycin,”
(§2) Real-time PCR (RT-PCR): RAW264.7 cells and spleen were used for RT-PCR. 1×10^6 RAW264.7 cells were grown in 2 ml medium in 6 wells plates until 80% confluence was obtained. Total RNA was extracted using the RNeasy kit (Qiagen, CA, USA). Spleen and brain tissues' RNA was extracted using the RNeasy Tissue Mini Kit (Qiagen, Germany). In all cases, total RNA was reverse-transcribed (200 ng) using Impromp-II reverse transcriptase (Promega, WI, USA) according to manufacturer's instructions. RT-PCR was performed using Power SYBR®Green PCR Master Mix (Applied Biosystems, UK) in a 7900 HT Sequence Detection System (Applied Biosystems, CA). Quantification was assessed at the logarithmic phase of the PCR reaction. The PCR annealing temperature was 60° C. for all primer pairs.

[3] = test system: FVB/N mice; assay: Predator (cat) odor stress paradigm, elevated plus maze (EPM) and acoustic startle response (ASR) one week post-exposure; type: in vivo, mouse
Method: Animals: FVB/N or adult TLR9 −/− mice and strain-matched wild type C57/B6J mice were housed four per cage, with constant temperature (21±1° C.), a 12 hour light/dark cycle, free access to food and water and habituation to the housing conditions by daily handling. Experiments were performed 1 week after arrival in the animal facility.
Behavioral paradigms: Mice were placed for 10 minutes on well-soiled cat litter (in use by the cat for 2 days, sifted for stools). One week after exposure, animals were tested according to Cohen et al. (2005) Biol Psychiatry 58, 640 in the elevated plus maze (EPM) and the acoustic startle response (ASR) paradigms. The EPM is a plus-shaped platform with two opposing open arms and two opposing closed arms (surrounded by 14-cm high opaque walls on three sides). Mice were placed on the central platform and were allowed to explore the maze for 5 min. […]
Startle response was measured using two ventilated startle chambers (SR-LAB System, San Diego Instruments, San Diego, Calif.). Each Plexiglas cylinder rests on a platform inside a sound-attenuated, ventilated chamber. Startle sessions started with a 5-minute acclimatization period to a background of 68 dB white noise, followed by 30 acoustic startle stimuli (110 dB white noise of 40 ms duration with 30 s or 45 s inter-trial interval). Startle amplitude was averaged over all 30 trials, and percent habituation was calculated as the percent difference between the response to the first block of stimuli and to the last one.
(§3) Animals were randomly divided into 5 groups. The following daily treatments initiated immediately before stressor exposure and for a total of four consecutive days: saline, 50 μg/kg ODN1826, 50 μg/kg mEN101, 50 μg/kg μg mEN101 and 500 μg/kg μg ODN2088. Oligonucleotides were delivered in 300 μl 0.9% NaCl solution (Teva, Israel). A control group was exposed to fresh, unused litter. Animals were sacrificed and brains dissected on day 1 2 h after the stressor, on day 4 2 h after the last injection, or on day 7 2 h after the behavioral tests, as noted.
To challenge the hypothesis that TLR9 activation modulates psychological stress reactions, mice were exposed to the predator odor stress paradigm (Cohen, H., Zohar, J., Matar, M. A., Kaplan, Z. & Geva, A. B. (2005) Biol Psychiatry 58, 640-50) and treated them with TLR9 activating or blocking oligonucleotides and with a known stress-suppressing oligonucleotide, mEN101. One week post-exposure, treated mice were tested for avoidance behavior and hyper-arousal in the elevated plus maze (EPM) and acoustic startle response (ASR) tests, respectively (FIG. 1B). […] They also presented greater startle amplitude (F5,103=10.75, p<0.0001; p<0.0001) and decreased startle habituation ([…]; p<0.0001) than control mice (FIG. 1C). The traumatic experience conferred varied impacts in the exposed mice, ranging from drastically maladaptive behavior to generally unmodified response patterns.

[4] = test system: HSP90β mRNA; assay: HSP90β mRNA RT-PCR in spleen and frontal lobe of stressed mice; type: in vivo, mouse; conditions: co-administration with mEN101
Method: Animals: The stress paradigm consisted of placing the test animals on well-soiled cat litter for 10 minutes (in use by the cat for 2 days, sifted for stools). Tissues were removed 4 days following exposure.
as §2

[5] = test system: hippocampus; assay: RT-PCR of anxiety-related hippocampal transcripts, 4 days following stress; type: in vivo, mouse
Method: as §3
Real-time PCR (RT-PCR): Brains were dissected and tissues stored frozen at −70° C. until use. Hippocampal RNA was extracted using the RNeasy Tissue Mini Kit (Qiagen, Germany). Total RNA was reverse-transcribed (200 ng) using Impromp-II reverse transcriptase (Promega, Madison, Wis.) as instructed. RT-PCR was performed using Power SYBR®Green PCR Master Mix (Applied Biosystems, UK) in a 7900 HT Sequence Detection System (Applied Biosystems, Foster City, Calif.). Quantification was assessed at the logarithmic phase of the PCR reaction. The PCR annealing temperature was 60° C. for all primer pairs. GAPDH was used as a house-keeping gene.
The transcription factor early growth response gene 1 (egr-1) is a central mediator of inflammation and is broadly and constitutively expressed in the central nervous system (CNS). […]

[6] = test system: RAW264.7 cells; assay: Nitric oxide (NO) production, Griess reaction; type: cell-based, mouse; conditions: with 1 μM mEN101
[7] = 500 μg/kg co-administered with 50 μg/kg mEN101

## 5′-TCCTGGCGGGGAAGT-3′ (dT*dC*dC*dT*dG*dG*dC*dG*dG*dG*dG*dA*dA*dG*dT) [ODN2088]
[1]
  effect on 10 μM mEN101-driven increases in NO: blocked
[2]
  effect on mEN101 up-regulation of HSP90β mRNA: abolished
[3]; [7]
  EPM score of co-treated mice vs mEN101-treated mice: larger EPM scores
  effect on mEN101 anxiolytic effects: abolished much of the mEN101 anxiolytic effects; also recorded: abolished the mEN101-induced amelioration of anxiety-correlated behaviors
  habituation to acoustic startle of co-treated mice vs mEN101-treated mice: smaller habituation to acoustic startle
  startle response of co-treated mice: remained unchanged
[3]; co-administered with mEN101, compared to mEN101 treated mice
  anxiety index (AI): effect on mEN101 ameliorative effect: abolished mEN101 ameliorative effect
[4]
  effect on HSP90β mRNA up-regulation: completely abolished; also recorded: blocked
[5]; co-administration with mEN101
  effect on mEN101-induced modulation of hippocampal genes: abolished the mEN101-induced modulation of these genes
[5]; co-administration with mEN101, day 4
  anxiety-related transcripts GABRA2, CHRNA7, ADCYAP1R1, PKCB, CHRBP and CAMK2A (FIGS. 5A-F legend): reduced to control levels
[6]
  effect on mEN101 effects on NO production (FIG. 2A legend): abolished
